Results taken from patent US12441768B2, “Compositions and methods for treating endometriosis” (EndoMet Biosciences, Inc., priority 2018, dated 2025).
*1 amine or outer side, *2 acyl side, *3 side chain or, on linkers, in order; H or OH if unused. Where a SMILES comes first, the peptide text is derived from it. Bridges are numbered along the chain shown (N, C = ends). [ ]: non-standard residue; d: D form. ξ: configuration not given here. X4 = CC[C@@H](C)C(N[*:1])C(=O)[*:2]; Glutaryl = O=C(CCCC(=O)[*:2])[*:1]; ξW = NC(Cc1c[nH]c2ccccc12)C(=O)O; NMeNva = CCC[C@H](NC)C(=O)O; ξL = CC(C)CC(N)C(=O)O; ξC = NC(CS)C(=O)O; βAla = NCCC(=O)O

Target: T1, β-catenin (Homo sapiens, UniProt P35222)
T1 sequence (P35222 1-781): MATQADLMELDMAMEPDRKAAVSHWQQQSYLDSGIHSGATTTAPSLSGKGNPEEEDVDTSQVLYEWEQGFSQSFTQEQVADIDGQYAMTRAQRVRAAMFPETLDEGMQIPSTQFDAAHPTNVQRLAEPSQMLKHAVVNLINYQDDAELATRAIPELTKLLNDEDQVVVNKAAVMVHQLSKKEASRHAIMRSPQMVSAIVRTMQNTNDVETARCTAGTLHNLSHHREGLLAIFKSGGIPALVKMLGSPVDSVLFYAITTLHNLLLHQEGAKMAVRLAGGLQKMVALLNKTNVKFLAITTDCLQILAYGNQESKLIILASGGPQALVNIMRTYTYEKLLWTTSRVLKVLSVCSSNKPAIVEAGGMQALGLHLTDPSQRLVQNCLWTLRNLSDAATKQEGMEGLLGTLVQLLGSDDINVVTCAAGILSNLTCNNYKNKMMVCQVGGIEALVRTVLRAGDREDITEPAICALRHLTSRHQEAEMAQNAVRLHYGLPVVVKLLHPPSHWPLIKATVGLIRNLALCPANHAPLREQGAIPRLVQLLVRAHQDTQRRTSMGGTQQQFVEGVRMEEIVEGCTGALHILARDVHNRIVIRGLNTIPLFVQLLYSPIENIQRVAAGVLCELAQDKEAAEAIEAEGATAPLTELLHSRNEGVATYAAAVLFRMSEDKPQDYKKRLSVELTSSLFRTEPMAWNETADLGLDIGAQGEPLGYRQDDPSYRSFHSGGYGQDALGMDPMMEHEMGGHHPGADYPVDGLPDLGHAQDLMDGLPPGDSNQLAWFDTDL
Assay: KD50 measurement using competitive fluorescence polarization (FP) with labelled TCF4
Assay type: binding
Conditions: for Kd / β-Cat FP Hill slope: fluorescence polarization, β-catenin; for Kd: read-out: β-Cat FP KD
From the text: Fluorescence polarization (FP) is another method used to analyze protein-ligand interactions. This methodology measures the change in fluorescence light emitted by a labelled compound free vs. conjugated to another compound in solution. Upon binding of the fluorescent molecule to a complex, polarization increases because of limited rotation of the fluorescent tracer. Competitive FP is often utilized in drug screens as it is formatted for high throughput screens in a plate format. This immunoassay is performed by introducing a non-conjugated drug to compete for binding to the labelled competitor-ligand complex, leading to a reduction in polarization. TCF4 protein is utilized for the competitive assay as (1) this protein influences the full activation of the Wnt pathway and (2) shares homology with the β-catenin inhibitors. Exemplary methodology is described in Example 13. Data were analyzed and plotted in Microsoft Excel (Microsoft, Redmond, WA).
5 nM of labelled TCF4 protein was added to solution of 100 nM of β-catenin and incubated at room temperature in 96-well plates (Greiner 96 Flat transparent plates, Millipore Sigma, Carlsbad CA). Varying concentrations of β-catenin inhibitor candidate (SEQ ID NO: 404) were then added in a series of serial dilutions from 10 nM to 30 uM of inhibitor in different wells of the plate. The fluorescence polarization was read by Infinite M1000 (Tecan, Baldwin Park CA) at excitation wavelength of 470 nm and measured at emission wavelength of 520 nm. […] The experiments were performed three times and data were analyzed and plotted in Microsoft Excel (Microsoft, Redmond, WA).

Compound	Kd	β-Cat FP Hill slope	Binding to β-catenin (fluorescence polarization) (5 nM labelled TCF4, 100 nM β-catenin, 10 nM to 30 uM inhibitor)
CCCCCCCCC(=O)N[C@@H](Cc1c[nH]c2ccccc12)C(=O)N(C)[C@@H](C)C(=O)N[C@@H](CCC(N)=O)C(=O)N[C@H]1CCCNC(=O)CC[C@@H](C(=O)N[C@@H](Cc2c[nH]cn2)C(=O)N[C@H](C(=O)N[C@@H](CCC(N)=O)C(=O)N[C@@H](CCCNC(=N)N)C(=O)N[C@H](C(=O)N[C@@H](Cc2c[nH]c3ccccc23)C(=O)NCC(N)=O)C(C)C)C2CCCCC2)NC(=O)[C@H](CC(=O)O)NC(=O)[C@H](CC(C)C)NC(=O)[C@H]([C@@H](C)CC)NC1=O [compound 425] (HELM PEPTIDE1{[CCCCCCCCC(=O)[*:2]].W.[meA].Q.[Orn].I.L.D.E.H.[O=C([C@@H](N[*:1])C1CCCCC1)[*:2]].Q.R.V.W.G.[am]}$PEPTIDE1,PEPTIDE1,5:R3-9:R3$$$V2.0)	< 0.4 µM	–	–
CCC[C@H]1C(=O)N[C@@H](CCC(N)=O)C(=O)N[C@@H](CO)C(=O)N[C@@H](CC(C)C)C(=O)N[C@@H](Cc2ccccc2)C(=O)N(C)[C@@H](CCC)C(=O)N2CCC[C@H]2C(=O)N2CCC[C@H]2C(=O)N(C)[C@@H](CCC)C(=O)N[C@H](C(N)=O)CCCCNC(=O)CCCC(=O)N[C@@H](CCSC)C(=O)N[C@@H](CCSC)C(=O)N1C [compound 3] (MM[NMeNva]QSLF[NMeNva]PP[NMeNva]K-NH2; linker N-12 via Glutaryl)	10 to 30 µM	0.98	–
CC[C@H](C)[C@@H]1NC(=O)[C@@H](NC(=O)[C@H](CCC(N)=O)NC(=O)[C@H](C)N(C)C(=O)[C@H](Cc2c[nH]c3ccccc23)NC(C)=O)CCCCNC(=O)CC[C@@H](C(=O)N[C@@H](Cc2c[nH]cn2)C(=O)N[C@H](C(=O)N[C@@H](CCC(N)=O)C(=O)N[C@@H](CCCNC(=N)N)C(=O)N[C@H](C(=O)N[C@@H](Cc2c[nH]c3ccccc23)C(=O)NCC(N)=O)C(C)C)C2CCCCC2)NC(=O)[C@H](CC(=O)O)NC(=O)[C@H](CC(C)C)NC1=O [SEQ ID NO: 404, cyclo-AcNH-W-NmeA-QK*ILDE*H-Chg-QRVWG-NH2] (HELM PEPTIDE1{[ac].W.[meA].Q.K.I.L.D.E.H.[O=C([C@@H](N[*:1])C1CCCCC1)[*:2]].Q.R.V.W.G.[am]}$PEPTIDE1,PEPTIDE1,5:R3-9:R3$$$V2.0)	–	–	binds β-catenin in a concentration-dependent manner
CC[C@@H](C)C(NC(=O)C(CC(C)C)NC(=O)[C@H](Cc1ccccc1)NC(=O)C(Cc1c[nH]c2ccccc12)NC(=O)[C@H](CCCCN)NC(C)=O)C(=O)NC(CS)C(=O)N[C@@H](C)C(=O)NC(Cc1c[nH]c2ccccc12)C(=O)NCCC(=O)O (some centres unmarked) [compound 235] (Ac-K[ξW]F[ξL][X4][ξC]A[ξW][βAla]-OH)	> 30 µM	–	–
CC[C@H](C)[C@H](NC(=O)[C@H](CC(C)C)NC(=O)[C@H](Cc1ccccc1)NC(=O)[C@H](Cc1c[nH]c2ccccc12)NC(=O)[C@H](CCSC)NC(C)=O)C(=O)N[C@@H](C)C(=O)N[C@@H](Cc1ccccc1)C(=O)N[C@@H](Cc1c[nH]c2ccccc12)C(=O)NCC(=O)O [compound 274] (Ac-MWFLIAFWG-OH)	< 0.4 µM	2.2	–
CC[C@H](C)[C@@H]1NC(=O)[C@@H](NC(=O)C(C)(C)NC(=O)[C@H](C)N(C)C(=O)[C@H](Cc2c[nH]c3ccccc23)NC(C)=O)CCCCNC(=O)CC[C@@H](C(=O)N[C@@H](Cc2c[nH]cn2)C(=O)N[C@H](C(=O)N[C@@H](CCC(N)=O)C(=O)N[C@@H](CCCNC(=N)N)C(=O)N[C@H](C(=O)N[C@@H](Cc2c[nH]c3ccccc23)C(=O)NCC(N)=O)C(C)C)C2CCCCC2)NC(=O)[C@H](CC(=O)O)NC(=O)[C@H](CC(C)C)NC1=O [compound 418] (HELM PEPTIDE1{[ac].W.[meA].[Aib].K.I.L.D.E.H.[O=C([C@@H](N[*:1])C1CCCCC1)[*:2]].Q.R.V.W.G.[am]}$PEPTIDE1,PEPTIDE1,5:R3-9:R3$$$V2.0)	> 30 µM	1.03	–
CC[C@H](C)[C@H](NC(=O)[C@H](CO)NC(=O)[C@H](CCC(N)=O)NC(=O)[C@H](C)N(C)C(=O)[C@H](Cc1c[nH]c2ccccc12)NC(C)=O)C(=O)N[C@@H](CC(C)C)C(=O)N[C@@H](CC(=O)O)C(=O)N[C@H]1CCCCNC(=O)C[C@@H](C(=O)N[C@H](C(=O)N[C@@H](Cc2c[nH]c3ccccc23)C(N)=O)C(C)C)NC(=O)[C@H](CCC(N)=O)NC(=O)[C@H](C2CCCCC2)NC(=O)[C@H](Cc2c[nH]cn2)NC1=O [compound 460] (HELM PEPTIDE1{[ac].W.[meA].Q.S.I.L.D.K.H.[O=C([C@@H](N[*:1])C1CCCCC1)[*:2]].Q.D.V.W.[am]}$PEPTIDE1,PEPTIDE1,9:R3-13:R3$$$V2.0)	< 0.4 µM	0.7	–
CC[C@H](C)[C@@H]1NC(=O)[C@H](CC(C)C)NC(=O)[C@@H](N)CCCCNC(=O)C[C@@H](C(=O)O)NC(=O)[C@H](Cc2c[nH]c3ccccc23)NC(=O)[C@H](Cc2ccccc2)NC(=O)[C@H](C)NC1=O [compound 251] (HELM PEPTIDE1{K.L.I.A.F.W.D}$PEPTIDE1,PEPTIDE1,1:R3-7:R3$$$V2.0)	> 30 µM	–	–
CCCCCCCCCCCC(=O)N[C@@H](Cc1c[nH]c2ccccc12)C(=O)N1CCC[C@H]1C(=O)N[C@@H](CCC(N)=O)C(=O)N[C@@H](CO)C(=O)N[C@H](C(=O)N[C@@H](CC(C)C)C(=O)N[C@@H](CC(=O)O)C(=O)N[C@H]1CCC(=O)NCCCC[C@@H](C(=O)N[C@H](C(=O)N[C@@H](Cc2c[nH]c3ccccc23)C(N)=O)C(C)C)NC(=O)[C@H](CCC(N)=O)NC(=O)[C@H](C2CCCCC2)NC(=O)[C@H](Cc2c[nH]cn2)NC1=O)[C@@H](C)CC [compound 469] (HELM PEPTIDE1{[CCCCCCCCCCCC(=O)[*:2]].W.P.Q.S.I.L.D.E.H.[O=C([C@@H](N[*:1])C1CCCCC1)[*:2]].Q.K.V.W.[am]}$PEPTIDE1,PEPTIDE1,9:R3-13:R3$$$V2.0)	< 0.4 µM	–	–
CC[C@H](C)[C@H](NC(=O)[C@H](CC(C)C)NC(=O)[C@H](Cc1ccccc1)NC(=O)[C@H](Cc1c[nH]c2ccccc12)NC(=O)[C@@H](N)CCSC)C(=O)N[C@@H](CO)C(=O)N[C@@H](C)C(=O)N[C@@H](Cc1c[nH]c2ccccc12)C(=O)NCC(=O)O [compound 9] (H-MWFLISAWG-OH)	1 to 10 µM	0.51	–
CC[C@H](C)[C@@H]1NC(=O)[C@H](CC(C)C)NC(=O)[C@H](Cc2ccccc2)NC(=O)[C@H](Cc2c[nH]c3ccccc23)NC(=O)[C@@H](N)CCCCNC(=O)CCNC(=O)C[C@@H](C(=O)O)NC(=O)[C@H](Cc2c[nH]c3ccccc23)NC(=O)[C@H](C)NC(=O)[C@H](CS)NC1=O [compound 260] (HELM PEPTIDE1{K.W.F.L.I.C.A.W.[O=C(O)[C@H](CC(=O)[*:2])N[*:1]].[bAla]}$PEPTIDE1,PEPTIDE1,1:R3-10:R2$$$V2.0)	1 to 10 µM	1.53	–
CC(C)C[C@@H]1NC(=O)[C@H](Cc2ccccc2)NC(=O)[C@H](Cc2c[nH]c3ccccc23)NC(=O)[C@@H](N)CCCCNC(=O)CC[C@@H](C(=O)N[C@@H](CO)C(=O)N[C@@H](Cc2ccccc2)C(=O)N[C@@H](Cc2c[nH]c3ccccc23)C(=O)NCC(=O)O)NC1=O [compound 231] (HELM PEPTIDE1{K.W.F.L.E.S.F.W.G}$PEPTIDE1,PEPTIDE1,1:R3-5:R3$$$V2.0)	1 to 10 µM	0.7	–
CC[C@H](C)[C@@H]1NC(=O)[C@@H](NC(=O)[C@H](CCC(N)=O)NC(=O)[C@H](C)N(C)C(=O)[C@H](Cc2c[nH]c3ccccc23)NC(C)=O)CCCCNC(=O)CC[C@@H](C(=O)N[C@@H](Cc2c[nH]cn2)C(=O)N[C@H](C(=O)N[C@H]2CCC(=O)NCCCC[C@@H](C(N)=O)NC(=O)[C@H](Cc3c[nH]c4ccccc34)NC(=O)[C@H](C(C)C)NC(=O)[C@H](CC(=O)O)NC2=O)C2CCCCC2)NC(=O)[C@H](CC(=O)O)NC(=O)[C@H](CC(C)C)NC1=O [compound 464] (HELM PEPTIDE1{[ac].W.[meA].Q.K.I.L.D.E.H.[O=C([C@@H](N[*:1])C1CCCCC1)[*:2]].E.D.V.W.K.[am]}$PEPTIDE1,PEPTIDE1,5:R3-9:R3|PEPTIDE1,PEPTIDE1,12:R3-16:R3$$$V2.0; bridges inferred)	–	0.7	–
